# According to patent US10131932B2, “Method for assaying a protease” (McMaster University, priority 2013, dated 2018):
# B1: alpha-2-macroglobulin: thrombin-binding plasma inhibitor protein (protein, UniProt P01023 24-1474, looked up)
# Alpha-2-macroglobulin: SVSGKPQYMVLVPSLLHTETTEKGCVLLSYLNETVTVSASLESVRGNRSLFTDLEAENDVLHCVAFAVPKSSSNEEVMFLTVQVKGPTQEFKKRTTVMVKNEDSLVFVQTDKSIYKPGQTVKFRVVSMDENFHPLNELIPLVYIQDPKGNRIAQWQSFQLEGGLKQFSFPLSSEPFQGSYKVVVQKKSGGRTEHPFTVEEFVLPKFEVQVTVPKIITILEEEMNVSVCGLYTYGKPVPGHVTVSICRKYSDASDCHGEDSQAFCEKFSGQLNSHGCFYQQVKTKVFQLKRKEYEMKLHTEAQIQEEGTVVELTGRQSSEITRTITKLSFVKVDSHFRQGIPFFGQVRLVDGKGVPIPNKVIFIRGNEANYYSNATTDEHGLVQFSINTTNVMGTSLTVRVNYKDRSPCYGYQWVSEEHEEAHHTAYLVFSPSKSFVHLEPMSHELPCGHTQTVQAHYILNGGTLLGLKKLSFYYLIMAKGGIVRTGTHGLLVKQEDMKGHFSISIPVKSDIAPVARLLIYAVLPTGDVIGDSAKYDVENCLANKVDLSFSPSQSLPASHAHLRVTAAPQSVCALRAVDQSVLLMKPDAELSASSVYNLLPEKDLTGFPGPLNDQDNEDCINRHNVYINGITYTPVSSTNEKDMYSFLEDMGLKAFTNSKIRKPKMCPQLQQYEMHGPEGLRVGFYESDVMGRGHARLVHVEEPHTETVRKYFPETWIWDLVVVNSAGVAEVGVTVPDTITEWKAGAFCLSEDAGLGISSTASLRAFQPFFVELTMPYSVIRGEAFTLKATVLNYLPKCIRVSVQLEASPAFLAVPVEKEQAPHCICANGRQTVSWAVTPKSLGNVNFTVSAEALESQELCGTEVPSVPEHGRKDTVIKPLLVEPEGLEKETTFNSLLCPSGGEVSEELSLKLPPNVVEESARASVSVLGDILGSAMQNTQNLLQMPYGCGEQNMVLFAPNIYVLDYLNETQQLTPEIKSKAIGYLNTGYQRQLNYKHYDGSYSTFGERYGRNQGNTWLTAFVLKTFAQARAYIFIDEAHITQALIWLSQRQKDNGCFRSSGSLLNNAIKGGVEDEVTLSAYITIALLEIPLTVTHPVVRNALFCLESAWKTAQEGDHGSHVYTKALLAYAFALAGNQDKRKEVLKSLNEEAVKKDNSVHWERPQKPKAPVGHFYEPQAPSAEVEMTSYVLLAYLTAQPAPTSEDLTSATNIVKWITKQQNAQGGFSSTQDTVVALHALSKYGAATFTRTGKAAQVTIQSSGTFSSKFQVDNNNRLLLQQVSLPELPGEYSMKVTGEGCVYLQTSLKYNILPEKEEFPFALGVQTLPQTCDEPKAHTSFQISLSVSYTGSRSASNMAIVDVKMVSGFIPLKPTVKMLERSNHVSRTEVSSNHVLIYLDKVSNQTLSLFFTVLQDVPVRDLKPAIVKVYDYYETDEFAIAEYNAPCSKDLGNA
# Key:
# Thrombin [1] = experiment: Thrombin activity on T13 FRET-protein substrate with inhibitors; type: biochemical; settings: 60 minutes incubation, alpha-2-macroglobulin 0.2 μM, PPAck 20 μM
# Procedure: The effect of the FRET-protein substrate on the thrombin activity in the absence and presence of alph-2-macroglobulin was then determined. Following addition of either thrombin (as above), thrombin incubated with alpha-2-macroglobulin for 60 minutes (as above) or thrombin incubated for 60 minutes with the thrombin inhibitor, PPAck (D-FPR-chloromethyl ketone, 20 μM), thrombin activity was determined. Thrombin was inhibited by either alpha-2-macroglobulin or PPAck, as shown by the reduction in the slope of the ratio for each (FIG. 11B).
# Thrombin [2] = experiment: Thrombin activity on substrate S2238 with inhibitors; type: biochemical; settings: 60 minutes incubation, alpha-2-macroglobulin 0.2 μM, PPAck 20 μM
# Procedure: The effect of thrombin substrate, S2238, on thrombin activity in the presence and absence of alpha-2-macroglobulin was then determined. Following addition of thrombin (as above), thrombin incubated with alpha-2-macroglobulin for 60 minutes (as above), thrombin incubated with PPAck (as above) for 60 minutes, or thrombin incubated with alpha-2-macroglobulin (0.2 μM) and PPAck (20 μM) for 60 minutes, to S2238, thrombin activity was determined.
# [3] = system: thrombin generation in whole blood; experiment: Thrombin generation in unanticoagulated whole blood with FRET-protein substrate; type: biochemical, human; settings: for area-under-the-curve of slope of the ratio curve / maximal upslope of slope of the ratio curve / peak height of slope of the ratio curve / thrombin generation: increasing amounts of anticoagulant in whole blood
# Procedure: In this experiment, 12 μL of unanticoagulated human blood, obtained from a finger prick of a healthy human donor, was added to a plastic vessel (NUNC, Polystyrene, 384 well plate) containing the T13 FRET-protein substrate (8 μL in PIPES buffer, 4.6 μM final concentration) within 30 seconds of lancing the finger. Results were obtained on a fluorescence spectrophotometer, as above, temperature controlled to 37° C. Initially, as the mixture warms, the ratio of emission at 526 nm:581 nm decreases slightly, but then increases, initially sharply to a plateau as shown in FIG. 6.
# The slope (first derivative) of the ratio was then determined using a mathematical program such as Excel or GraphPad Prism as shown in FIG. 7A. The curve of the slope of the ratio is smoothed using 20 neighbours using a mathematical program (Excel or GraphPad Prism). This is the typical appearance of a thrombin generation curve in plasma. Parameters that could be used to describe this curve include, but are not limited to, peak height, time to peak, lag time, maximal upslope, and area-under-the curve to a certain time point. FIG. 7B compares a) 12 μL blood combined with FRET-protein substrate (final conc. 4.6 μM) to final volume of 20 μL to b) 20 μL blood combined with FRET-protein substrate (final conc. 5.1 μM) to a final volume of 22.5 μL. The time-to-peak and lag-time are shortened and the peak height, maximal upslope and area-under-the-curve are increased in the latter where the blood is less dilute.
# The effect of rivaroxaban on thrombin generation in the blood was determined. Unanticoagulated blood was taken from a finger prick of a healthy volunteer. The blood was added to a plastic vessel containing the FRET-protein substrate (0.62 μM) and rivaroxaban at various concentrations (to a final concentration of 5 μg/L, 25 μg/L and 50 μg/L).
# The effect of apixaban on thrombin generation in the blood was also determined. Blood was added to FRET-protein substrate and various concentrations of apixaban was (to a final concentration of 25 μg/L, 100 μg/L, 400 μg/L and 1000 μg/L). Apixaban also alters the shape of the “slope of the ratio curve”.
# The effect of dabigatran on thrombin generation in the blood was also determined. Blood was added to FRET-protein substrate and various concentrations of […] was (to a final concentration of 25 μg/L, 100 μg/L and 400 μg/L). Dabigatran also alters the shape of the “slope of the ratio curve”. […]
# Thrombin [4] = experiment: Fibrinogen clotting by thrombin, turbidity at 405 nm; type: biochemical; settings: 0.2 μM
# Procedure: The effect of alpha-2-macroglobulin on thrombin activity was determined. Thrombin (2 nM) and calcium (5 mM) were combined in PIPES buffer. Clotting was initiated by the addition of fibrinogen (3 μM). Clotting was measured by monitoring turbidity 405 nm using a spectrometer. The fibrinogen clotted within 10 minutes and remained clotted.
Molecule,thrombin activity (slope of the ratio) (Thrombin [1]),thrombin activity (slope of absorbance) (Thrombin [2]),area-under-the-curve of slope of the ratio curve [3],maximal upslope of slope of the ratio curve [3],peak height of slope of the ratio curve [3],thrombin generation [3],other results
"NC(N)=NCCC[C@H](NC(=O)[C@@H]1CCCN1C(=O)[C@H](N)Cc1ccccc1)C(=O)CCl [PPAck, D-FPR-chloromethyl ketone]",inhibited,substantial inhibition,,,,,
COc1ccc(-n2nc(C(N)=O)c3c2C(=O)N(c2ccc(N4CCCCC4=O)cc2)CC3)cc1 [apixaban],,,decreased,decreased,decreased,decreases thrombin generation,"time to peak ([3]; anticoagulant in whole blood, dabigatran at higher concentrations): increase the time to peak"
O=C(NC[C@H]1CN(c2ccc(N3CCOCC3=O)cc2)C(=O)O1)c1ccc(Cl)s1 [rivaroxaban],,,decreased,decreased,decreased,decrease thrombin generation,
corn trypsin inhibitor,,,,,,,"thrombin generation (peak of slope of ratio) ([3]; 200 μg/mL final concentration, unanticoagulated whole blood): delay and reduce"
B1,inhibited,little inhibition,,,,,clotting of fibrinogen (Thrombin [4]; pre-incubation with thrombin (2 nM) for 35 minutes): reduced clotting; clotting of fibrinogen (Thrombin [4]; pre-incubation with thrombin (2 nM) for 60 minutes): inhibited clotting
